Laboratory results taken from patent US20250367215A1, “PHARMACEUTICAL COMBINATION COMPRISING A CHOLANE DERIVATIVE AND A STATIN OR URSODESOXYCHOLIC ACID” (BAR PHARMACEUTICALS SOCIETA' A RESPONSABILITA' LIMITATA, priority 2022, published 2025).

System: C57BL6 mice
Test: HFD-F diet-induced NASH mouse model, BAR502 and UDCA (Example 2)
Format: in vivo
Settings: C57BL6 mice on HFD-F for 61 days; oral from day 6; UDCA 30 mg/kg alone or with BAR502 30 mg/kg
Source text: The mouse model of Example 1 was used once again. Using this mouse model, the inventors therefore investigated the effectiveness of the association between BAR502 and UDCA in preventing the development of NASH.

C[C@H](CCC(=O)O)[C@H]1CC[C@H]2[C@@H]3[C@@H](O)C[C@@H]4C[C@H](O)CC[C@]4(C)[C@H]3CC[C@]12C [UDCA, ursodesoxycholic acid]
effect on insulin resistance, glucose load curve (OGTT) (FIG. 9): beneficial effects on insulin resistance
